The results in this text go back to ChEMBL document CHEMBL1143768, “Microwave prompted multigram synthesis, structural determination, and photo-antiproliferative activity of fluorinated 4-hydroxyquinolinones” (Bioorg Med Chem Lett, 2007).

The structures appear in SMILES notation. Values after ≈ are worked out from the molar mass of the structure shown.

In series [1] the test system is Mycobacterium tuberculosis. Description: Growth inhibition of Mycobacterium tuberculosis at 6.25 ug/ml. Type of series: functional.
Series [2] deals with HL-60. Description: Apoptotic activity in HL60 cells irradiated with 2.5 J cm^-2 at 5.0 […] after 24 hrs. Type of series: functional, Homo sapiens.
For series [3], the system named is HL-60. Description: Apoptotic activity in HL60 cells irradiated with 2.5 J cm^-2 at 5.0 […] after 48 hrs. Type of series: functional, Homo sapiens.
Series [4] relates to HL-60. Description: Apoptotic activity in HL60 cells irradiated with 2.5 J cm^-2 at 5.0 […] after 72 hrs. Type of series: functional, Homo sapiens.
Another series has as its system LoVo. Description: Photocytotoxicity against human LoVo cell line irradiated with 2.5 J cm^-2 after 72 hrs by MTT assay. Type of series: functional. The following applies: light or radiation study. For orientation: Tetrazolium assays rely on reduction of a dye to a coloured formazan, in cell work by metabolically active cells.
For series [5], the system named is HL-60. Description: Cell cycle arrest in HL60 cell line irradiated with 2.5 J cm^-2 assessed as accumulation at G1 phase at 2.5 […] after 24 hrs. Type of series: functional, Homo sapiens.
Series [6] relates to HL-60. In words: Cell cycle arrest in HL60 cell line irradiated with 2.5 J cm^-2 assessed as accumulation at G2 phase at 2.5 […] after 24 hrs. Type of series: functional, Homo sapiens.
Series [7] concerns HL-60. Description: Cell cycle arrest in HL60 cell line irradiated with 2.5 J cm^-2 assessed as accumulation at S phase at 2.5 […] after 24 hrs. Type of series: functional, Homo sapiens.
Series [8] has as its system HL-60. In words: Apoptotic activity in HL60 cells irradiated with 2.5 J cm^-2 at 2.5 […] after 24 hrs. Type of series: functional, Homo sapiens.
Series [9] deals with HL-60. In words: Cell cycle arrest in HL60 cell line irradiated with 2.5 J cm^-2 assessed as accumulation at G1 phase at 2.5 […] after 48 hrs. Type of series: functional, Homo sapiens.
Series [10] relates to HL-60. Description: Cell cycle arrest in HL60 cell line irradiated with 2.5 J cm^-2 assessed as accumulation at G1 phase at 2.5 […] after 72 hrs. Type of series: functional, Homo sapiens.
For series [11], the system named is HL-60. Description: Cell cycle arrest in HL60 cell line irradiated with 2.5 J cm^-2 assessed as accumulation at G2 phase at 2.5 […] after 48 hrs. Type of series: functional, Homo sapiens.
The test system of series [12] is HL-60. Description: Cell cycle arrest in HL60 cell line […] cm^-2 assessed as accumulation at G2 phase at 2.5 […] after 72 hrs. Type of series: functional, Homo sapiens.
The test system of series [13] is HL-60. In words: Cell cycle arrest in HL60 cell line irradiated with 2.5 J cm^-2 assessed as accumulation at S phase at 2.5 […] after 48 hrs. Type of series: functional, Homo sapiens.
Series [14] has as its system HL-60. In words: Cell cycle arrest in HL60 cell line irradiated with 2.5 J cm^-2 assessed as accumulation at S phase at 2.5 […] after 72 hrs. Type of series: functional, Homo sapiens.
For series [15], the system named is HL-60. In words: Apoptotic activity in HL60 cells irradiated with 2.5 J cm^-2 at 2.5 […] after 48 hrs. Type of series: functional, Homo sapiens.
Series [16] concerns HL-60. Description: Apoptotic activity in HL60 cells irradiated with 2.5 J cm^-2 at 2.5 […] after 72 hrs. Type of series: functional, Homo sapiens.
Series [17] deals with HL-60. In words: Cell cycle arrest in HL60 cell line irradiated with 2.5 J cm^-2 assessed as accumulation at G1 phase at 5.0 […] after 24hrs. Type of series: functional, Homo sapiens.
Series [18] concerns HL-60. In words: Cell cycle arrest in HL60 cell line irradiated with 2.5 J cm^-2 assessed as accumulation at G1 phase at 5.0 […] after 48 hrs. Type of series: functional, Homo sapiens.
For series [19], the system named is HL-60. Description: Cell cycle arrest in HL60 cell line irradiated with 2.5 J cm^-2 assessed as accumulation at G1 phase at 5.0 […] after 72 hrs. Type of series: functional, Homo sapiens.
Series [20] has as its system HL-60. In words: Cell cycle arrest in HL60 cell line irradiated with 2.5 J cm^-2 assessed as accumulation at G2 phase at 5.0 […] after 24hrs. Type of series: functional, Homo sapiens.
The test system of series [21] is HL-60. In words: Cell cycle arrest in HL60 cell line irradiated with 2.5 J cm^-2 assessed as accumulation at G2 phase at 5.0 […] after 48 hrs. Type of series: functional, Homo sapiens.
Series [22] concerns HL-60. In words: Cell cycle arrest in HL60 cell line irradiated with 2.5 J cm^-2 assessed as accumulation at G2 phase at 5.0 […] after 72 hrs. Type of series: functional, Homo sapiens.
The subject of series [23] is HL-60. In words: Cell cycle arrest in HL60 cell line irradiated with 2.5 J cm^-2 assessed as accumulation at S phase at 5.0 […] after 24hrs. Type of series: functional, Homo sapiens.
The test system of series [24] is HL-60. In words: Cell cycle arrest in HL60 cell line irradiated with 2.5 J cm^-2 assessed as accumulation at S phase at 5.0 […] after 48 hrs. Type of series: functional, Homo sapiens.
The test system of series [25] is HL-60. In words: Cell cycle arrest in HL60 cell line irradiated with 2.5 J cm^-2 assessed as accumulation at S phase at 5.0 […] after 72 hrs. Type of series: functional, Homo sapiens.
Series [26] is described as follows: Photocytotoxicity against human NTCC 2544 cell line irradiated with 2.5 J cm^-2 after 72 hrs by MTT assay. Type of series: cell-based. The following applies: NTCC 2544 cells.
Series [27] has as its system HL-60. In words: Photocytotoxicity against human HL60 cell line irradiated with 1.25 J cm^-2 after 72 hrs by MTT assay. Type of series: functional. The following applies: HL-60, light or radiation study.
Series [28] relates to HL-60. In words: Photocytotoxicity against human HL60 cell line irradiated with 2.5 J cm^-2 after 72 hrs by MTT assay. Type of series: functional. The following applies: HL-60, light or radiation study.
Series [29] can be described thus: Photocytotoxicity against human NTCC 2544 cell line irradiated with 1.25 J cm^-2 after 72 hrs by MTT assay. Type of series: cell-based. The settings on record: NTCC 2544 cells.
The test system of series [30] is Mycobacterium tuberculosis. Description: Antimicrobial activity against Mycobacterium tuberculosis. Type of series: functional.
A further series has as its system Trichophyton benhamiae. In words: Antifungal activity against Trichophyton mentagrophytes 445(TM) by broth microdilution test. Type of series: functional, Arthroderma benhamiae. For orientation: Dilution methods test growth across graded concentrations, often in twofold steps.

A word on the inhibition: it is the change of the read-out against control, counted positive when it falls. In turn, `O=c1cc(O)c2ccccc2[nH]1` showed an inhibition at 6.25 µg/mL in series [1] of 0%.
What is called GI50 is the concentration that inhibits growth by half. `O=c1cc(O)c2cc(F)ccc2[nH]1`: the Activity in the series with HL-60 [2] was 21%; with HL-60 [3], 26%; with HL-60 [4], 46%; in the series on HL-60 [5], 30.8%; with HL-60 [6], 10.8%; with HL-60 [7], 58.4%. For the same compound, the Activity in the series on HL-60 [8] came out at 13.2%; in the series with HL-60 [9], 44.7%; in the series on HL-60 [10], 44.2%; with HL-60 [11], 10.3%; in the series with HL-60 [12] it was 12%; with HL-60 [13] it was 45%. The Activity came to 43.8% in the series on HL-60 [14]; 27% in the series on HL-60 [15]; 40.5% with HL-60 [16]; 34.6% in the series on HL-60 [17]; 49.6% with HL-60 [18]; 56% in the series on HL-60 [19]. For the same compound, the Activity was 11.1% in the series with HL-60 [20]; 11.7% with HL-60 [21]; 6.9% with HL-60 [22]; 54.3% in the series on HL-60 [23]; 38.6% in the series on HL-60 [24]; 37.1% with HL-60 [25]. Also, 6.25 µg/mL produced 35% inhibition in series [1]. The GI50 with LoVo was 12.1 µM; in the series with HL-60 [27], more than 10 µM; in the series on HL-60 [28], 7.8 µM. Also, the concentration for 50% growth inhibition (GI50) at 72 h in series [26] and in [29] was more than 20 µM in each case.
Take `O=c1cc(O)c2cccc(C(F)(F)F)c2[nH]1`: the inhibition at 6.25 µg/mL in series [1] worked out at 69%. Besides, the GI50 was 10.1 µM with LoVo, more than 10 µM with HL-60 [27] and 7.3 µM in the series with HL-60 [28]. Moreover, the GI50 at 72 h is 7.8 µM in series [26] and more than 20 µM in [29].
Broadly, the Inhibition is the relative decrease from the control value, in per cent. Read a high Inhibition as strong suppression. In series [1], `O=c1cc(O)c2ccc(C(F)(F)F)cc2[nH]1` came in with an inhibition at 6.25 µg/mL of 72%. The values for the 50% growth inhibitory concentration (GI50) in the series with LoVo and in the series with HL-60 [27] were 1.8 µM and 6.2 µM, respectively. Moreover, in series [30], the Inhibition is recorded as 72%. The GI50 at 72 h in series [26] came out at 2.5 µM; in series [29] it was 7 µM.
Compound `Cc1ccc2c(O)cc(=O)[nH]c2c1` came in with an inhibition at 6.25 µg/mL in [1] of 54%. Further, the GI50 with HL-60 [27] was more than 10 µM; in the series on HL-60 [28], 10 µM.
With `O=c1cc(O)c2cccc(F)c2[nH]1`, testing at 6.25 µg/mL in series [1] gave an inhibition of 50%. In addition, the figures for the GI50 in the series with HL-60 [27] and in the series with HL-60 [28] were more than 10 µM and 10 µM, respectively.
In series [1], `O=c1cc(O)c2ccc(F)cc2[nH]1` yielded an inhibition at 6.25 µg/mL of 52%. Besides, the GI50 was more than 10 µM with HL-60 [27] and 10 µM in the series with HL-60 [28].
The compound `O=c1cc(O)c2ccc(Cl)cc2[nH]1` came in with an inhibition at 6.25 µg/mL in series [1] of 2%.
The term MIC denotes the lowest concentration that inhibits growth of the organism. The low end stands for inhibition by little substance, the high end for a need for much substance. Regarding `OC(Cn1cncn1)(Cn1cncn1)c1ccc(F)cc1F` [FLUCONAZOLE], it took 1950 µM (≈ 597 µg/mL) to inhibit growth against Trichophyton benhamiae (MIC).
For the compound `NC(=O)c1cnccn1` [PYRAZINAMIDE], 6.25 µg/mL produced 100% inhibition in series [1].
